In ChEMBL document CHEMBL1201862, “PubChem BioAssay data set” (2004):
Activity calls are given as the source filed them.

What was measured:
[1] = Luminescence Cell-Based Dose Response HTS to Identify Activators of Luciferase Translation or Activity in H4 […] Cells. [Related pubchem assays: 1829 (Project Summary), 1814 (Primary HTS)]; format: functional
H4 = test: Luminescence Cell-Based Dose Response HTS to Identify Activators of 5'UTR Stem-Loop Driven Prion Protein mRNA Translation in H4 Neuroglioblastoma Cells. [Related pubchem assays: 1829 (Project Summary), 1814 (Primary HTS)]; format: functional; conditions: Homo sapiens
[2] = Shn3 3'UTR reporter inhibitors, dose response, cell-based, Clone20 osteoblasts, firefly luciferase, cherry-picked (AID 624132); format: functional;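 also: firefly luciferase luminescence from reporter carrying the Shn3 3'UTR in osteoblasts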
[3] = control 3'UTR Renilla luciferase suppression, dose response, counter-screen for Shn3 inhibitor project, cell-based, Clone20-Shn3RL, cherry-picked (AID 624133); format: functional
[4] = biological target: T1, Heat shock factor protein 1 (Mus musculus, UniProt P38532); test: inhibition of MG132-induced HSE-luciferase signal, confirmation, cell-based, NIH3T3, luminescence, dose retest (AID 2382); format: functional;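 also: NIH3T3 fibroblasts with HSF1-driven luciferase reporter stressed by proteasome inhibitor MG132; luminescence from HSF1-driven luciferase expression after 8 hours of MG132 stress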
T1 sequence (P38532 whole entry): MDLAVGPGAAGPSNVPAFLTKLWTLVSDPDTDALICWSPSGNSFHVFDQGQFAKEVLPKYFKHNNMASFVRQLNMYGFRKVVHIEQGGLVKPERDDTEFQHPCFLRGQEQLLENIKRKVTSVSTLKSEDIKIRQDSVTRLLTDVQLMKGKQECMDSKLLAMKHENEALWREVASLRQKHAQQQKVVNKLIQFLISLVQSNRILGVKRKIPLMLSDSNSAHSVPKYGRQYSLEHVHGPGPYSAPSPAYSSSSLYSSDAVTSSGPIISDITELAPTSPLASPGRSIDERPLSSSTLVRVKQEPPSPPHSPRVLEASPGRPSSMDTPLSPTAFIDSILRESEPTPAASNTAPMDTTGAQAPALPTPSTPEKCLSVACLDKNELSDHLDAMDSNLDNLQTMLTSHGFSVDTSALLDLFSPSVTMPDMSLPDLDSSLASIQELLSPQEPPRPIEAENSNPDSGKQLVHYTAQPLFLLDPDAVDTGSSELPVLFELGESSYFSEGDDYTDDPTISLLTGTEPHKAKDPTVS

Cytochrome P450 3A4 = Cytochrome P450 3A4 (Homo sapiens, UniProt P08684);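 also: CYP3A4 tested as one member of a cytochrome P450 panel screen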
Sequence of Cytochrome P450 3A4 (P08684 whole entry): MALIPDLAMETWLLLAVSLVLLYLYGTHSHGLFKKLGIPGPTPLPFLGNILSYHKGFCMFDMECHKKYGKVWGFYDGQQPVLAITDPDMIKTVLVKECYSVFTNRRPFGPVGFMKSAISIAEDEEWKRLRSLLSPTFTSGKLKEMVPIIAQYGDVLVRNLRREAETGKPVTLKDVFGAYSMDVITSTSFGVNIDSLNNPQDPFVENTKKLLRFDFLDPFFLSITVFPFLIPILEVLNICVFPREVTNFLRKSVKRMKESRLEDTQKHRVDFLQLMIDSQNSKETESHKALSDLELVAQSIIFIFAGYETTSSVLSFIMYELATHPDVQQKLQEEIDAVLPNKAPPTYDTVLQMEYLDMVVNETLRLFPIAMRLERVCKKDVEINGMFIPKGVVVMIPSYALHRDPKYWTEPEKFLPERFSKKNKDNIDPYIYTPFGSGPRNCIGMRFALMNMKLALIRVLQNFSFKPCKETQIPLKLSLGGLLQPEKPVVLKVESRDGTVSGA

Cytochrome P450 2D6 = Cytochrome P450 2D6 (Homo sapiens, UniProt P10635);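 also: CYP2D6 member of a cytochrome P450 panel assay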
Sequence of Cytochrome P450 2D6 (P10635 whole entry): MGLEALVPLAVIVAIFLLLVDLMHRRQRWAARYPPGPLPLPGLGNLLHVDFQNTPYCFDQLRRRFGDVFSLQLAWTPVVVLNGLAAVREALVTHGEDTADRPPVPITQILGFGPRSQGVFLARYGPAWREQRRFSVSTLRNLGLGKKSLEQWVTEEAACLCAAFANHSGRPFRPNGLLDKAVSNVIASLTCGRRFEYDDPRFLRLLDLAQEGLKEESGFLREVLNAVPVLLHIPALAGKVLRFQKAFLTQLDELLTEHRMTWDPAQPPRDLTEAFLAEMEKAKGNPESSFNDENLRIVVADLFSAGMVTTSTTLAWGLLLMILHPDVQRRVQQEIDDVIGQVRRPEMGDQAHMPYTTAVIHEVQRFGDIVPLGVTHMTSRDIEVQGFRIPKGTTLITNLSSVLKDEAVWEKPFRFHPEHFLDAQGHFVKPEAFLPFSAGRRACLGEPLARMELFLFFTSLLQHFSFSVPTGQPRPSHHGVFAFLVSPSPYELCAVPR

[5] = biological target: FAD-linked sulfhydryl oxidase ALR (Homo sapiens, UniProt P55789); test: inhibitors of human ALR sulfhydryl oxidase, dose response, biochemical, H2O2 detection, luminescence, cherry-pick (AID 493248)
Sequence of FAD-linked sulfhydryl oxidase ALR (P55789 whole entry): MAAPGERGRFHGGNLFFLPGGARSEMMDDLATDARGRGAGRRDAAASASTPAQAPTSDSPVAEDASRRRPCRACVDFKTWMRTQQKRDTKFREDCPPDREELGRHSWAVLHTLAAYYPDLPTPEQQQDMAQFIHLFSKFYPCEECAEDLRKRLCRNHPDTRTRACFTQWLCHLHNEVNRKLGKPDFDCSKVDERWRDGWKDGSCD

Protein RecA = biological target: T2, Protein RecA (Mycobacterium tuberculosis, UniProt P9WHJ3); test: Fluorescence Cell-Free Homogeneous Dose Retest to Identify Inhibitors of RecA-Intein Splicing Activity. [Related pubchem assays (depositor defined):AID2097, AID2223, AID489010, AID492950]; format: functional
T2 sequence (P9WHJ3 whole entry): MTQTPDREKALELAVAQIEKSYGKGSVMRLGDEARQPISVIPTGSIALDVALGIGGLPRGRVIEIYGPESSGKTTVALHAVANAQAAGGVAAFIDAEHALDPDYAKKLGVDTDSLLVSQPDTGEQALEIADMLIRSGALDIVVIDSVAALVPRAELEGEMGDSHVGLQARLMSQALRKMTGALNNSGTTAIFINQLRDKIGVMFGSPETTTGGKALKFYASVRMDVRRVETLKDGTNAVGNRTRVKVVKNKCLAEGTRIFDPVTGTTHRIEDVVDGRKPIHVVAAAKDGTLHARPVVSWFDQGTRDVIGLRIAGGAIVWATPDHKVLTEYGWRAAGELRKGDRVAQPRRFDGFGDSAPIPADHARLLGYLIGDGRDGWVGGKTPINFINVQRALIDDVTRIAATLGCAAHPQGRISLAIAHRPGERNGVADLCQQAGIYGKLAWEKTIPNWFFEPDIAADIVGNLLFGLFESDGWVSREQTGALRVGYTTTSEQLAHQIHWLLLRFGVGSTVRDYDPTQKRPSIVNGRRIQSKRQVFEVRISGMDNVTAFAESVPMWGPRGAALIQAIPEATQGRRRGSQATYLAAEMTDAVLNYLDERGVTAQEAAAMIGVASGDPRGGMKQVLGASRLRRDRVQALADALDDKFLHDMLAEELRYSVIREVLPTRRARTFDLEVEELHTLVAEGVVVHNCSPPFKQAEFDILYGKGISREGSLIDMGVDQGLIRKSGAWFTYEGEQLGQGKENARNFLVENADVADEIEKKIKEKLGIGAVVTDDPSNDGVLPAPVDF

[6] = biological target: T3, Replicative DNA helicase DnaB (Mycobacterium tuberculosis, UniProt P9WMR3); test: DnaB intein splicing inhibitors, dose response, biochemical, cell-free fluorescence (AID 449749); format: functional
T3 sequence (P9WMR3 whole entry): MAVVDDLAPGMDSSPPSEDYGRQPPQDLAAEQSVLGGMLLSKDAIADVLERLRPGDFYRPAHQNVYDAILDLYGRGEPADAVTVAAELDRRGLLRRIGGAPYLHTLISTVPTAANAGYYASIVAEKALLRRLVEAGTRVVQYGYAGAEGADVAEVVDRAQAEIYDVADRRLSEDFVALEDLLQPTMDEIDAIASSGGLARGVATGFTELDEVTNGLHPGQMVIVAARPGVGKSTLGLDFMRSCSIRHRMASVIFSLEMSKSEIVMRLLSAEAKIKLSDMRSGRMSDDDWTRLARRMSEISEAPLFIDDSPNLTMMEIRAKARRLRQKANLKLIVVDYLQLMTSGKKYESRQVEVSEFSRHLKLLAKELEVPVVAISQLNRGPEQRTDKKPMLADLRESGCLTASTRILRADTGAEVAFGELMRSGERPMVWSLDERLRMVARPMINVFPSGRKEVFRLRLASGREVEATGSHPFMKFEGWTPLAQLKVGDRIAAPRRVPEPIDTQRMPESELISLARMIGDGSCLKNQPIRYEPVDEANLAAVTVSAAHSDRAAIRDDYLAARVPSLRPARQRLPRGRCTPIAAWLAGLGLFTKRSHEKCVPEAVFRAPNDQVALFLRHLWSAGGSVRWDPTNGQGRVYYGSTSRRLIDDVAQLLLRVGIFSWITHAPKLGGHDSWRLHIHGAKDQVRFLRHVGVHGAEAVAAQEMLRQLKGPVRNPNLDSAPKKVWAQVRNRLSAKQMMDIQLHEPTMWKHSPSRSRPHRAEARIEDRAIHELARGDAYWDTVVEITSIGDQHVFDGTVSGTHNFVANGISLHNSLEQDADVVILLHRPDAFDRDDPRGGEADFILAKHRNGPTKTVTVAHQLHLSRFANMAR

Cytochrome P450 2C9 = Cytochrome P450 2C9 (Homo sapiens, UniProt P11712)
Sequence of Cytochrome P450 2C9 (P11712 whole entry): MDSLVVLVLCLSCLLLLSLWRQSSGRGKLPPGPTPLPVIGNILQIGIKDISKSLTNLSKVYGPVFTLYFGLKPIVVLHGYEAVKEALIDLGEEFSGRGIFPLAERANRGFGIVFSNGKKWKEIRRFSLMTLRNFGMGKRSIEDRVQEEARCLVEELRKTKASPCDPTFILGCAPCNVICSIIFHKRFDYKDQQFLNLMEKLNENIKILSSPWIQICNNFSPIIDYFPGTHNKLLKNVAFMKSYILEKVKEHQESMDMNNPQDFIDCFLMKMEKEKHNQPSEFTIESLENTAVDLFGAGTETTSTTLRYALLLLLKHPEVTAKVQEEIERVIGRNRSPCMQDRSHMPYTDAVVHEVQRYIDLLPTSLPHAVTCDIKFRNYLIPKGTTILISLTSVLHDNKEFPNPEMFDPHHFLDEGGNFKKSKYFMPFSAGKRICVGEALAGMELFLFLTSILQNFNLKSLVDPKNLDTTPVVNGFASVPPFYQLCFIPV

Streptococcus = test: Group A Streptococcus viability loss, dose response, counter-screen for streptokinase expression inhibitor project, luminescence, BacTiterGlo (AID 1915); format: functional, organism-based;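 also: potency for reduction of bacterial viability or growth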
[7] = system: Streptococcus sp. 'group A'; test: growth inhibition of control SK(-) GAS strain, dose response, counter-screen for streptokinase expression inhibitor project, luminescence, kanamycin, BacTiterGlo, confirmation (AID 1900); format: functional, organism-based
Streptokinase A = biological target: T4, Streptokinase A (Streptococcus pyogenes serotype M1, UniProt P10520); test: S. pyogenes streptokinase expression inhibitors, potency, dose response, plasminogen activation absorbance, OD405 (AID 1914); format: functional, Streptococcus pyogenes M1 GAS;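 also: secreted streptokinase activity via plasminogen activation per viability signal from cell pellet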
T4 sequence (P10520 whole entry): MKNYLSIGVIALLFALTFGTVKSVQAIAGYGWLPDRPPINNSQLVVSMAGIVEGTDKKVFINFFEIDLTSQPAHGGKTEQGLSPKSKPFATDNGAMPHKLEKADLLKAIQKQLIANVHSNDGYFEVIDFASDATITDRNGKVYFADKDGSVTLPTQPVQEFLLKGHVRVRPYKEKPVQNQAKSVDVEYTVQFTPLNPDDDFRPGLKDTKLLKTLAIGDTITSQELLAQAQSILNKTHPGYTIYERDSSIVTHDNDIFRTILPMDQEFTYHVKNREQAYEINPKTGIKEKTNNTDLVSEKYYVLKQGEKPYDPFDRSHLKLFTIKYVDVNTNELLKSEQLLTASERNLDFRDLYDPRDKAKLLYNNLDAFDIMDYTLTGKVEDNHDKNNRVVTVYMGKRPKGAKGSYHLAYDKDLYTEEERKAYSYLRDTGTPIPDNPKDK

Cytochrome P450 2C19 = Cytochrome P450 2C19 (Homo sapiens, UniProt P33261); test: Cytochrome panel assay with activity outcomes. Panel member name: p450-cyp2c19 Compounds with AC50 equal or less than 10 uM are considered active; format: functional; conditions: read-out: AC50
Sequence of Cytochrome P450 2C19 (P33261 whole entry): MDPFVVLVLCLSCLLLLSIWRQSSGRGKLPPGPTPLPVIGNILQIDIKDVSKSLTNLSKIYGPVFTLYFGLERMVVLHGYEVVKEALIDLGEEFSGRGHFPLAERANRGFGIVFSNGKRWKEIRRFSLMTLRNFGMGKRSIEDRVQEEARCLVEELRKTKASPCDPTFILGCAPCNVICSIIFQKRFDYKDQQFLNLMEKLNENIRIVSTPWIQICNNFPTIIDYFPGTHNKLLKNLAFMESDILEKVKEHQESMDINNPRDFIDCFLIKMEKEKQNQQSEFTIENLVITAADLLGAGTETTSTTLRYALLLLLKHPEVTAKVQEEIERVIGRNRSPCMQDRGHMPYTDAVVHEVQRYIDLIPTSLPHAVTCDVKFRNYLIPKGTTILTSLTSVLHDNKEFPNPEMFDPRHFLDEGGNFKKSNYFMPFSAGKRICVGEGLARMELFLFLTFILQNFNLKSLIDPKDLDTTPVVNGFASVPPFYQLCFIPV

[8] = inhibitors of intracellular T. cruzi replication, confirmation, NIH3T3 host cells, beta-gal luminescence (AID 2044); format: functional, cell-based;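 also: intracellular parasites grown in NIH/3T3 mouse fibroblasts as host cells; luminescent beta-galactosidase reporter signal from transgenic T. cruzi replicating inside host cells; inhibitors lower the luminescence signal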
[9] = cytotoxicity toward NIH3T3 fibroblasts, dose response, counter-screen, cell-based, ATP luminescence, mouse fibroblasts (AID 2010); format: functional;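 also: cells exposed to compound for about 90 hours before reading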

SMILES	AC50 (Cytochrome P450 2D6)	EC50 (Protein RecA)	AC50 [6]	further results
Cc1ccc(C(=O)NNc2ncnc3ccccc23)cc1				EC50 [1]: 6.62 µM (active); EC50 (H4): > 120 µM (not active)
CC(=O)Oc1ccc(OC(C)=O)c(SCCCCCCl)c1				AC50 [2]: 2.58 µM (active); AC50 [3]: 7.84 µM (active); EC50 [4]: 7.65 µM (active)
N=C(N)SCc1nc(-c2ccc(Cl)cc2)no1	3.16 µM (inconclusive)			AC50 (Cytochrome P450 3A4): 5.01 µM (inconclusive)
O=C(NCc1cccnc1)c1ccc(COc2ccccc2Cl)cc1				AC50 [5]: 0.055 µM (active)
CCC(=O)c1cn(CC(=O)Nc2cccc(C)c2C)c2ccccc12				AC50 [2]: 1.52 µM (active); AC50 [3]: 3.44 µM (active)
N#CC(C#N)=NNc1ccc(S(=O)(=O)N2CCCCC2)cc1		9.78 µM (active)	4.03 µM (active)	
O=C(C1CC1)N1CCN=C1SCc1ccccc1Cl				AC50 [5]: 2.29 µM (active)
CCc1ccccc1N1C(=O)CC(N2CCc3ccccc32)C1=O (stereo unspecified)				AC50 [5]: 2.81 µM (active)
COc1cccc(CC(C(=O)Nc2cc(C)ccc2C)c2nn[nH]n2)c1OC (stereo unspecified)	15.8 µM (inconclusive)			AC50 (Cytochrome P450 3A4): 25.1 µM (inconclusive)
COc1cc(/C=C2/C(=O)NN(c3ccccc3)C2=O)cc(Br)c1O				AC50 [5]: 0.484 µM (active)
CCCCOc1cc(C(=O)NCCN(CC)CC)c2ccccc2n1 [DIBUCAINE]	7.94 µM (inconclusive)			
Nn1c(S)nnc1Cc1ccccc1				AC50 [5]: 0.134 µM (active)
COc1cccc(-c2[nH]nc3c2C(c2ccc(C)o2)C(C#N)=C(N)O3)c1 (stereo unspecified)		1.53 µM (active)	8.74 µM (active)	AC50 (Cytochrome P450 2C9): 15.8 µM (inconclusive)
N#CCC(=O)Nc1ccc(C(=O)NCc2cccc(Cl)c2)cc1				AC50 [5]: 9.8 µM (active)
CCOc1cc(C(c2c(C)n[nH]c2O)c2c(C)n[nH]c2O)cc(Cl)c1O		4.74 µM (active)	> 380 µM (inactive)	
COc1ccc(S(=O)(=O)N2CCN(CC(=O)Nc3cc(OC)cc(OC)c3)CC2)cc1	20 µM (inconclusive)			
CCCC1C(C#N)=C(N)Oc2[nH]nc(C(C)(C)C)c21 (stereo unspecified)		0.504 µM (active)	2.36 µM (active)	

SMILES	AC50 (Cytochrome P450 2D6)	EC50 (Protein RecA)	AC50 [6]	further results
Cc1cc(NC(=O)c2ccc(S(=O)(=O)Nc3ccccc3)cc2)no1	25.1 µM (inconclusive)			
CC(C)(C)c1[nH]nc2c1C(Cc1ccccc1)C(C#N)=C(N)O2 (stereo unspecified)		2.31 µM (active)	13.8 µM (active)	
CCN(CC)CCc1nc(-c2ccccc2)no1	6.31 µM (inconclusive)			
FC(F)(F)c1cccc(NC(S)=Nc2ccc(Cl)cc2Cl)c1	7.94 µM (inconclusive)			AC50 (Cytochrome P450 3A4): 28.2 µM (inconclusive); EC50 (Streptococcus): 46.8 µM (active); AC50 (Cytochrome P450 2C9): 31.6 µM (inconclusive); EC50 [7]: 4.48 µM (active); EC50 (Streptokinase A): > 150 µM (not active)
Cc1ccc(SCc2cc(=O)n(C)[nH]2)cc1		5.29 µM (active)	13.3 µM (active)	
Nc1cccc(/C=C/c2ccncc2)c1				AC50 [5]: 0.59 µM (active)
COc1ccc(OC)c2nc(O)c(CCNS(=O)(=O)c3ccc(Cl)cc3)cc12	31.6 µM (inconclusive)			AC50 (Cytochrome P450 3A4): 5.62 µM (inconclusive); AC50 (Cytochrome P450 2C19): 8.91 µM (inconclusive)
CCc1cc2c(nc1CC)CCN(CC/C(C)=N/O[C@@H](C)c1cn([C@@H]3COC[C@@H]3O)nn1)C2	2.51 µM (inconclusive)			
O=[N+]([O-])c1cc(-c2ccc(C(=S)N3CCOCC3)o2)ccc1Cl		10.2 µM (active)	39.9 µM (active)	
Cc1nc2nc(C)c(CCC(=O)NCCCN3CCN(c4cccc(Cl)c4)CC3)c(C)n2n1	12.6 µM (inconclusive)			AC50 (Cytochrome P450 2C19): 25.1 µM (inconclusive)
Nc1n[nH]c(SCC(=O)Nc2ccccc2Sc2ccc(Cl)cc2)n1	12.6 µM (inconclusive)			
O=[N+]([O-])c1ccc(Sc2nc(O)c3ccccc3n2)c([N+](=O)[O-])c1		6.05 µM (active)	16.9 µM (active)	EC50 [8]: 1.48 µM (active); EC50 [9]: > 60 µM (not active)
O=C(Oc1ccc(C(=S)N2CCOCC2)cc1)c1ccc([N+](=O)[O-])cc1[N+](=O)[O-]		10.6 µM (active)	18.6 µM (active)	
Cc1cc(NC(=O)Nc2ccc(N(C)C)cc2)c2cc(F)cc(F)c2n1	31.6 µM (inconclusive)			
COc1ccc(C2C(C#N)=C(N)Oc3[nH]nc(C)c32)cc1Cn1cc([N+](=O)[O-])cn1 (stereo unspecified)		3.11 µM (active)	5.32 µM (active)	
O=C(CSc1nnc(-c2ccc(Cl)cc2)o1)N1CCOCC1				EC50 [1]: 46.3 µM (active); EC50 (H4): 11.8 µM (active)
